Results taken from the supplement of paper PMC8671470.

Key:
Experiment in all cases: cell viability (% survival relative to DMSO control, bortezomib = 0%); higher = less cytotoxic
Conditions in all cases: 72 h
LAMA-84 = system: LAMA-84
Outline: (§1)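 Seeding density for each of the 10 AML and 5 CML cell lines was titrated to the linear growth range. Cells went into 384-well plates pre-printed in duplicate with compounds at 1, 10, 100, 1000 or 10000 nM and were held for 72 h at 37 °C with 5% CO2. CellTiter-Glo luminescence then provided the readout. Percent survival is expressed relative to vehicle at 100% and a 10 µM positive control at 0%, averaged over duplicates.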

Mono-Mac-6 = system: Mono-Mac-6
Outline: as §1

NOMO-1 = system: NOMO-1
Outline: as §1

| SMILES | cell viability (LAMA-84; 1 nM) | cell viability (LAMA-84; 10 nM) | cell viability (LAMA-84; 100 nM) | cell viability (LAMA-84; 1000 nM) | cell viability (LAMA-84; 10000 nM) | cell viability (Mono-Mac-6; 1 nM) | cell viability (Mono-Mac-6; 10 nM) | cell viability (Mono-Mac-6; 100 nM) | cell viability (Mono-Mac-6; 1000 nM) | cell viability (Mono-Mac-6; 10000 nM) | cell viability (NOMO-1; 1 nM) | cell viability (NOMO-1; 10 nM) | cell viability (NOMO-1; 100 nM) | cell viability (NOMO-1; 1000 nM) | cell viability (NOMO-1; 10000 nM) |
| --- | --- | --- | --- | --- | --- | --- | --- | --- | --- | --- | --- | --- | --- | --- | --- |
| Nc1ccn([C@@H]2O[C@H](CO)[C@@H](O)[C@@H]2O)c(=O)n1 [Cytarabine] | 93% | 80.3% | 38.5% | 12.9% | 5% | 95.1% | 86.4% | 79.8% | 19.1% | 3.49% | 107% | 105% | 89.6% | 78.1% | 9.44% |
| C1CCC(C(CC2CCCCN2)C2CCCCC2)CC1.O=C(O)/C=C\C(=O)O (stereo not given) [Perhexiline] | 97.7% | 89.1% | 98% | 97.7% | 12.3% | 91.8% | 87.4% | 85.9% | 98.6% | 1.23% | 91.6% | 82.6% | 88.7% | 94.9% | 25.9% |
| Cc1coc2c1C(=O)C(=O)c1c-2ccc2c(C)cccc12 [Tanshinone I] | 104% | 105% | 101% | 108% | 95.4% | 126% | 107% | 106% | 102% | 84.7% | 111% | 103% | 97.3% | 98.6% | 91.5% |
| c1ccc2c(c1)OCC(=C1NCCN1)O2 [Idazoxan] | 101% | 98.4% | 89% | 96.5% | 93% | 102% | 106% | 91.1% | 89.1% | 102% | 98.9% | 104% | 94.4% | 92.2% | 89.3% |
| CCOC(=O)[C@@]1(CCCCCCOc2ccc(Cl)cc2)CO1 [Etomoxir] | 94.9% | 110% | 106% | 58.5% | 62.7% | 93.5% | 94.4% | 92.9% | 95.7% | 96.3% | 99.5% | 101% | 104% | 92.1% | 102% |
| CC(C)C[C@H](NC(=O)[C@@H](O)[C@H](N)Cc1ccccc1)C(=O)O [Ubenimex] | 115% | 101% | 103% | 101% | 101% | 99.5% | 116% | 96.4% | 83.1% | 90.1% | 105% | 105% | 94.8% | 95.5% | 100% |
| Cl.OC[C@H]1NC[C@@H](O)[C@@H](O)[C@@H]1O [1-Deoxymannojirimycin hydrochloride] | 99.5% | 93.4% | 102% | 94% | 95.6% | 108% | 89.9% | 109% | 87.2% | 96.2% | 103% | 89.9% | 104% | 99.3% | 92.1% |
| O=C(O)CCc1ccc(NCc2cccc(Oc3ccccc3)c2)cc1 [GW9508] | 96.8% | 98.6% | 108% | 93.2% | 106% | 101% | 104% | 108% | 110% | 104% | 92.8% | 96.6% | 108% | 108% | 104% |
| Clc1ccc2c(c1Cl)CNCC2 | 98.6% | 105% | 93.7% | 110% | 94.4% | 95.3% | 103% | 104% | 106% | 77.4% | 95.4% | 100% | 101% | 102% | 90.9% |
